Source: a melting point compilation (Tetko et al.; mined from patent text by program, amines drawn as free bases though some values may be those of a salt)

melting point [°C] | SMILES
164 to 167 | Cc1nc(N)c2ncn(CCCCNC(=O)N3CCOCC3)c2c1C
35 to 38 | CC(C)(CCC(=O)O)N(Cl)Cl
64 to 68 | COc1cc(OC)c(N2CCCC2)cc1/C=C/C(=O)c1ccc(S(=O)(=O)NCCCN2CCN(C)CC2)cc1
235 to 238 | O=c1c(Cl)c(OCc2ccc(F)cc2F)ccn1Cc1cccc2cnccc12
134 | N#CC(C(=O)c1ccc(-c2ccc(Cl)cc2)cc1)=C1CCCCN1
106 to 107 | Cc1ccc(S(=O)(=O)OCC2COc3cc(F)c([N+](=O)[O-])cc3O2)cc1 (centres undefined)
124 to 125 | CCOc1ccc(-n2c(Cl)ccc2-c2ccc(S(N)(=O)=O)cc2)cc1
46 to 50 | CCOC(=O)C1CN(C(=O)C(C)(C)C)CCC1=O (centres undefined)
139 to 140 | COc1ccc(C#CC(C)N(O)C(N)=O)cc1Oc1ccc(F)cc1 (centres undefined)
185 to 188 | Cn1cc(-c2ccccc2)c(=S)c(-c2cccc(Br)c2)c1
169 to 171 | CCC(=O)N1CCC(NC(=O)Nc2ccccc2)CC1
189 to 190 | CCC(C(=O)C(C)C(O)C(C)CCc1c(NC(C)=O)cc(C)c(O)c1C(=O)O)C1OC(CC)(C2CCC(O)(CC)C(C)O2)CC1C (centres undefined)
152 to 156 | Cc1ncc(CN2C(=O)c3ccccc3C2=O)n1-c1ccc(Cl)cc1Cc1ccccc1F
156 to 157 | C#Cc1cn(C2CC(O)C(CO)O2)c(=O)n(C(=O)c2ccccc2)c1=O (centres undefined)
130 to 131 | CCCCC(Cc1ccc(OCCNC(=O)c2ccc(-c3ccccc3)cc2)cc1)C(=O)O (centres undefined)
125 to 127 | COc1cc2oc(=O)c(CCCl)c(C)c2cc1OC(C)C
262 to 264 | O=C1c2nc[nH]c2N(Cc2ccccc2)C2=NCCN12
> 150 | Nc1c(NC2CCc3ccccc32)[nH]c(=O)[nH]c1=O (centres undefined)
78 to 80 | c1cncc(C2CCCCC2)c1
91 | N#Cc1nn(Cc2ccccc2)c2ccccc12
114 to 117 | CCCCCCCCCCCCCCCC(CC)C1OC(=O)C(O)=C1O (centres undefined)
159 to 162 | O=C1C=C[C@H]2N1CCN1C(=O)C[C@H]3CCCC[C@@]321 (relative stereo)
261 to 263 | CCOC(=O)Nc1nc(-c2ccccc2)c(-c2nc3ccccc3c(=O)n2-c2cccc(C)c2)s1
101 to 104 | CCCCCCCCCCCC(=O)NC(CCC(=O)O)C(=O)O (racemic)
124 to 125 | O=c1ccn(-c2ccccc2F)nc1-c1ccnn1-c1ccccc1

melting point [°C] | SMILES
115 to 118 | CC1=Nc2ccccc2C1(C)CCCCCC(=O)O (centres undefined)
205 to 206 | CCCCCCCCCCCCc1c2c(=O)c3cc(-c4cccs4)ccc3c2c(CCCCCCCCCCCC)c2c(=O)c3cc(-c4cccs4)ccc3c12
167 to 169 | Cc1c(Cl)c(F)cc(C(=O)O)c1Cl
238 to 239 | COc1cc(OC)c2sc(-c3ccc([N+](=O)[O-])cc3)nc2c1
149 to 150 | CC(=O)N1c2ccccc2-c2c([N+](=O)[O-])cnn2C1C (centres undefined)
127 to 128 | CCOc1nn(Cc2ccccc2OCc2nc(-c3ccccc3)oc2C)cc1CCC(=O)O
85 to 90 | CCCCCC(=O)N1C(=O)CC[C@H]1C(=O)O
129 to 130 | OC(CN1CCOCC1)c1cc(C(F)(F)F)nc2c(C(F)(F)F)cccc12 (centres undefined)
186 | N[C@H]1CC[C@H](Nc2ccnc3cc(C(F)(F)F)ccc23)CC1
71 to 73 | COc1nc(C)c(C)cc1[N+](=O)[O-]
226 to 228 | O=C1CCCN1c1cccc(-c2ccnc3c([N+](=O)[O-])cnn23)c1
81.5 | C=Cn1ccnc1C#N
260 to 263 | O=C1c2ccccc2-c2c1c1ccccc1c(=O)n2CCNS(=O)(=O)c1ccc(Br)cc1
222 to 224 | NC(=O)c1ccc(F)c2c1CC(NCCCc1c[nH]c3c(Cl)cccc13)CO2 (centres undefined)
163 to 165 | CNc1ccc2c(C)nc(CC3OC(COC(=O)c4ccccc4)C(O)C3O)n2n1 (centres undefined)
197 | COc1cc(C)c(C=CC(C)=CC=CC(C)=CC(=O)OC2C(OC)OC(CO)C(O)C2O)c(C)c1C (centres undefined)
184 to 185 | Cc1oc(-c2ccco2)nc1COc1ccc(COc2nn(Cc3ccccc3)cc2C(=O)O)cc1OCc1ccccc1
176 to 178 | O=C(NC1=NN(c2ccc(Cl)cc2)C(c2ccccc2)C1)C(F)(F)F (centres undefined)
134 to 137 | CCOC(=O)C(=O)Nc1cnccn1
171 to 172 | Nc1cc(Nc2cccc(Cl)c2)ncn1
170 to 171 | O=C(NC1CC1)c1cn2c(NCCCCCCNS(=O)(=O)c3ccccc3[N+](=O)[O-])nsc2n1
74.5 | C=CCC(C#N)(C#N)Cc1ccc(C)cc1
80 to 82 | CCCCOc1cc(CCC(=O)O)ccc1-c1cccc(CN(C)C(=O)c2cccc(OC)c2)c1
220 to 223 | O=C(Nc1ccccc1O)c1nnn[nH]1
130 to 131 | COc1ccc(Cc2cc(=O)[nH]c3nc(OCc4ccccn4)ncc23)cc1Cl

melting point [°C] | SMILES
121 to 123 | CC=NN(C(=O)c1ccc(C)cc1)c1ccc2c(c1)OCCO2
122 | C#CCN1CCCc2cccc(CSc3nc4ccccc4[nH]3)c21
180 to 181 | CC(CC(C(C)C(C)(C)O)N(C)C)C1CCC2C(O)CCCC12C (centres undefined)
211 to 212 | COc1cc(OC)cc(N2CCN(C(=S)Nc3cc4ccccc4nc3C)CC2)c1
251 | CCOC(=O)c1cn(-c2cnnn2C)c2nc(Cl)c(F)cc2c1=O
189 to 190 | COC(=O)CCC(=O)Oc1c(C)n(Cc2ccccc2)c2c(OCc3ccccc3)nncc12
170 | CN1CCC(OC(c2ccccc2)c2nc3cccc(O)c3[nH]2)CC1 (centres undefined)
66 to 68 | CCOP(=O)(OCC)C(CCc1cc(C)nc2c(Cl)c(-c3ccccc3)nn12)P(=O)(OCC)OCC
93 to 95 | CN=C1SCN(Cc2ccccc2)C(=O)N1C
126 to 127 | O=C1CCCc2cc(Sc3cccc(F)c3)cc(F)c21
316 to 318 | COc1ccccc1-n1c(=O)[nH]c2c(C(N)=O)nc(-c3cccc(C#N)c3)nc21
143 to 145 | S=C=Nc1ccccc1N1CCCCC1
176 | CCCCCCCC1=CC(=O)NC1(O)CN (centres undefined)
142 to 145 | O=[N+]([O-])c1ccc(-c2ccc(Cl)cc2)cc1
88 | CCCC(CC(=O)Nc1ccccc1)(OC)OC
102 to 104 | O=S(=O)(c1ccc(Br)cc1)N1CCNCC1
130 to 132 | COC(=O)c1cccc(Cn2ccn(C3CCc4ccccc4C3)c2=S)c1 (centres undefined)
141 to 145 | CCN1C(=O)Cc2cc(C(C)=O)ccc21
> 270 | Cc1c(Cl)cccc1S(=O)(=O)Nc1ccc2ncncc2c1
49 to 51 | CC(O)C(=O)c1ccc(F)cc1F (centres undefined)
155 to 157 | COC(=O)C(=O)c1cc(OC)c(O)c([N+](=O)[O-])c1
161 to 162 | Nc1cc(C(=O)O)cc(OCc2ccccc2)c1-c1ccccc1
153 to 154 | Cc1sc2ncc(C(O)CCc3ccccc3)n2c1C (centres undefined)

SMILES | melting point [°C]
CCOc1ccccc1C(=O)NC(=O)NC1CN2CCC1CC2 (centres undefined) | 198 to 199
